US11739098B2 (BRISTOL-MYERS SQUIBB COMPANY, priority 2017, dated 2023)

Key:
Assay type in all cases: cell-based
human TLR8 = molecular target: T1, human TLR8 (Homo sapiens, UniProt Q9NR97); test: TLR8 inhibition reporter assay (HEK-Blue cells, SEAP reporter, R848 stimulation); settings: HEK-Blue cells overexpressing human TLR8, SEAP reporter, R848 15.9 μM
T1 construct: host or cells: HEK-Blue cells (HEK293-derived reporter line)
T1 sequence (Q9NR97 27-1041): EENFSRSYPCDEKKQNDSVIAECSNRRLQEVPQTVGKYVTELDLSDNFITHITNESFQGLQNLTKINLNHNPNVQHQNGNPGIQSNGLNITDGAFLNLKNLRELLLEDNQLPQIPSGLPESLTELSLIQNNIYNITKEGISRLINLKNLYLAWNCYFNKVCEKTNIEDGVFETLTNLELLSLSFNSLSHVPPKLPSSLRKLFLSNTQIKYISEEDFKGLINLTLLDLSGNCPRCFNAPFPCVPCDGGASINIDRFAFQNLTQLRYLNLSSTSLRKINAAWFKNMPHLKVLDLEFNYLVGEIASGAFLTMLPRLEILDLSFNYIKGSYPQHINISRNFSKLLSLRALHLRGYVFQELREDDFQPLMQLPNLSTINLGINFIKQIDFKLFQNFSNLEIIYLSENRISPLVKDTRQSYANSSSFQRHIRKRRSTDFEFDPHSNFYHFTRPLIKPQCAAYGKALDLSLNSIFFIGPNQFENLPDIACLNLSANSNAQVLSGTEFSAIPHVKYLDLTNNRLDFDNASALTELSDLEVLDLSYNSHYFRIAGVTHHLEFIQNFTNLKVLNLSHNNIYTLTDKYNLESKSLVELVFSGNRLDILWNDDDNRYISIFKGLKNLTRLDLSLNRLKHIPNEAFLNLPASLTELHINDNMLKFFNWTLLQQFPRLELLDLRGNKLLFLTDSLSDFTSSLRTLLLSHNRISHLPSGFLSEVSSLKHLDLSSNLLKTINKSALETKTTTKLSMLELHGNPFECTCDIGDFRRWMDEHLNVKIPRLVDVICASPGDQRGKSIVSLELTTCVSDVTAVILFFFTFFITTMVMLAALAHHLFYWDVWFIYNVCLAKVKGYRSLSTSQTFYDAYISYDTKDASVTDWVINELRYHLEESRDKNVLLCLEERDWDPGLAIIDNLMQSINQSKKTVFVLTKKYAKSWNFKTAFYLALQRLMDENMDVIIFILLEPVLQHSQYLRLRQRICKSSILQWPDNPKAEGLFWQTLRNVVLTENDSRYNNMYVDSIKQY
Summary of the method: (§1)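 HEK-Blue cells overexpressing the receptor, with NF-κB/AP-1-driven SEAP, were pre-treated 30 min at room temperature with compound (0.05 nM–50 μM), then stimulated with gardiquimod 7.5 μM (TLR7), R848 15.9 μM (TLR8) or ODN2006 5 nM (TLR9). SEAP was read after 22 h at 37 °C as percent inhibition.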

human TLR7 = molecular target: T2, human TLR7 (Homo sapiens, UniProt Q9NYK1); test: TLR7 inhibition reporter assay (HEK-Blue cells, SEAP reporter, gardiquimod stimulation); settings: HEK-Blue cells overexpressing human TLR7, SEAP reporter, gardiquimod 7.5 μM
T2 construct: host or cells: HEK-Blue cells (HEK293-derived reporter line)
T2 sequence (Q9NYK1 27-1049): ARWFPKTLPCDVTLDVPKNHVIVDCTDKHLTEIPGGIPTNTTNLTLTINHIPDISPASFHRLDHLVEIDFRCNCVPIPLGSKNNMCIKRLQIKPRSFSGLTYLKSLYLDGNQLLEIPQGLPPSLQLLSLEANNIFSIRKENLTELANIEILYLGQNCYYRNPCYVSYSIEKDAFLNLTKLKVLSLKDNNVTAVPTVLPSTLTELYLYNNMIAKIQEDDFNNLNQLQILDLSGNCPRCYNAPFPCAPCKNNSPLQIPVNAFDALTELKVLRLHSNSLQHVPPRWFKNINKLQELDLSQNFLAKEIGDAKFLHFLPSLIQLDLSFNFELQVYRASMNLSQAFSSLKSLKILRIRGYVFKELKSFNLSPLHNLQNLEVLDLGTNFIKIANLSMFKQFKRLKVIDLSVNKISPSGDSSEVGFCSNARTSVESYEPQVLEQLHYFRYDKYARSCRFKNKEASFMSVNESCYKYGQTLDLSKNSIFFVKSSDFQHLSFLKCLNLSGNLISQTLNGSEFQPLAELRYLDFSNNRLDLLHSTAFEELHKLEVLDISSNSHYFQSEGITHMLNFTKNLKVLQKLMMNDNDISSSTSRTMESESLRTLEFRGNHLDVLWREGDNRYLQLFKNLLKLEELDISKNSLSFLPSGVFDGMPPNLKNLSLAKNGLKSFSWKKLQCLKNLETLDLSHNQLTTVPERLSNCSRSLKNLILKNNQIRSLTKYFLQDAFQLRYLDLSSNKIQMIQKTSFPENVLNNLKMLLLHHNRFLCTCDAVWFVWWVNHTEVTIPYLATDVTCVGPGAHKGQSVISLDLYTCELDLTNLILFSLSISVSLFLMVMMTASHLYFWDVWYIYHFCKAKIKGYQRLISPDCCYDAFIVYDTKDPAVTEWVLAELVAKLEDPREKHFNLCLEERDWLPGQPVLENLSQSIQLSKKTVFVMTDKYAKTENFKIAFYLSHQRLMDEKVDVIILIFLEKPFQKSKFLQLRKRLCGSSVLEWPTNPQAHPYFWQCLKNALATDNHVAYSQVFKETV
Summary of the method: as §1

human TLR9 = molecular target: T3, human TLR9 (Homo sapiens, UniProt Q9NR96); test: TLR9 inhibition reporter assay (HEK-Blue cells, SEAP reporter, ODN2006 stimulation); settings: HEK-Blue cells overexpressing human TLR9, SEAP reporter, ODN2006 5 nM
T3 construct: host or cells: HEK-Blue cells (HEK293-derived reporter line)
T3 sequence (Q9NR96 26-1032): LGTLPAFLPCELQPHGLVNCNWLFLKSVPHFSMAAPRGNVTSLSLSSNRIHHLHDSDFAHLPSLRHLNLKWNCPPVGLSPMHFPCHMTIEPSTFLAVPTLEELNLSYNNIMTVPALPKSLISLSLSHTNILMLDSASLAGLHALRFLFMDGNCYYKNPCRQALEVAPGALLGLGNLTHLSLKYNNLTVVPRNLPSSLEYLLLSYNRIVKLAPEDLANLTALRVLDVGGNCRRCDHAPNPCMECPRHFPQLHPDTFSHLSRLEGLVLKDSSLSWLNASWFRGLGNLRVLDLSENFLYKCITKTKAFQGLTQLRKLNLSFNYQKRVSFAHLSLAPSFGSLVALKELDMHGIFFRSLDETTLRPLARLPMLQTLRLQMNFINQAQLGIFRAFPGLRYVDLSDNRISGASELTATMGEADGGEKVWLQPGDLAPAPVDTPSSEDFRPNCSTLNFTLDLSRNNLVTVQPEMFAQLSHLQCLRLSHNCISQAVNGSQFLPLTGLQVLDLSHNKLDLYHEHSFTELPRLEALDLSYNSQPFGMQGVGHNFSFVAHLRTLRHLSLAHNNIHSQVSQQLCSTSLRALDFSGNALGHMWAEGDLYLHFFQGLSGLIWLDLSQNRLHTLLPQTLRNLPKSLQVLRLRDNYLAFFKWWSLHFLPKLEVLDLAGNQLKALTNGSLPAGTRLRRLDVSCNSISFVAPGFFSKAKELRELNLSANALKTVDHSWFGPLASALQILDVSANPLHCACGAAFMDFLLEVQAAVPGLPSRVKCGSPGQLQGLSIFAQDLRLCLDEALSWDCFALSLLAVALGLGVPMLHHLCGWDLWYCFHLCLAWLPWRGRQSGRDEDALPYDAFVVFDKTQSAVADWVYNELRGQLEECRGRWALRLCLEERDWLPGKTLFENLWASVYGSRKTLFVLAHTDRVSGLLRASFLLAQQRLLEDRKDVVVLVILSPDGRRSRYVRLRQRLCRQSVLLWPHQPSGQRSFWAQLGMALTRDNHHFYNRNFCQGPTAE
Summary of the method: as §1

Row | Structure (SMILES) | IC50 (human TLR8) | IC50 (human TLR7) | IC50 (human TLR9)
1 | CNCCN1CCC(c2ccc3[nH]c(-c4ccc5nccnc5c4)c(C)c3c2)CC1 [Example 658] | 1000 to 50000 nM | 1000 to 50000 nM | 100 to 1000 nM
2 | CC(C)c1c(-c2ccc(Cl)c3[nH]ncc23)[nH]c2ccc(C3CCN(C(=O)CN(C)C)CC3)cc12 [Example 556, 1-(4-(2-(7-chloro-1H-indazol-4-yl)-3-isopropyl-1H-indol-5-yl)piperidin-1-yl)-2-(dimethylamino)ethan-1-one] | 100 to 1000 nM | 100 to 1000 nM | 1000 to 50000 nM
3 | CC(C)c1c(-c2c[nH]c3cnccc23)[nH]c2ccc(C3CCNCC3)cc12 [Example 15, 3-(3-isopropyl-5-(piperidin-4-yl)-1H-indol-2-yl)-1H-pyrrolo[2,3-c]pyridine] | 1000 to 50000 nM | 100 to 1000 nM | 100 to 1000 nM
4 | CNC(=O)CN1CCC(c2ccc3[nH]c(-c4cc(C)c5nccnc5c4)c(C(C)C)c3c2)CC1 [Example 394, 2-(4-(3-isopropyl-2-(8-methylquinoxalin-6-yl)-1H-indol-5-yl)piperidin-1-yl)-N-methylacetamide] | 100 to 1000 nM | < 100 nM | 1000 to 50000 nM
5 | Cc1cc(-c2[nH]c3ccc(C4CCN(C(=O)CN(C)C)CC4)cc3c2C(C)C)cc2[nH]c(=O)oc12 [Example 490, 5-(5-(1-(dimethylglycyl)piperidin-4-yl)-3-isopropyl-1H-indol-2-yl)-7-methylbenzo[d]oxazol-2(3H)-one] | 100 to 1000 nM | 100 to 1000 nM | 1000 to 50000 nM
6 | CNC(=O)CN1CCC(c2ccc3[nH]c(-c4cc(C(C)(C)O)c5nccn5c4)c(C(C)C)c3c2)CC1 [Example 342, 2-(4-(2-(8-(2-hydroxypropan-2-yl)imidazo[1,2-a]pyridin-6-yl)-3-isopropyl-1H-indol-5-yl)piperidin-1-yl)-N-methylacetamide] | 100 to 1000 nM | < 100 nM | 100 to 1000 nM
7 | CC(C)c1c(-c2ccnc3[nH]ncc23)[nH]c2ccc(C3CCN(Cc4nccc5ccccc45)CC3)cc12 [Example 910, 1-((4-(3-isopropyl-2-(1H-pyrazolo[3,4-b]pyridin-4-yl)-1H-indol-5-yl)piperidin-1-yl)methyl)isoquinoline] | 100 to 1000 nM | 100 to 1000 nM | 1000 to 50000 nM

Second part, the compound after the results:

Row | IC50 (human TLR8) | IC50 (human TLR7) | IC50 (human TLR9) | Structure (SMILES)
8 | < 100 nM | < 100 nM | 1000 to 50000 nM | CC(C)c1c(-c2ccc3ncnn3n2)[nH]c2ccc(C3CCN(C(=O)CN(C)C)CC3)cc12 [Example 452, 1-(4-(2-([1,2,4]triazolo[1,5-b]pyridazin-6-yl)-3-isopropyl-1H-indol-5-yl)piperidin-1-yl)-2-(dimethylamino)ethan-1-one]
9 | < 100 nM | < 100 nM | 1000 to 50000 nM | Cc1cc(-c2[nH]c3ccc(C4CCN(CC(=O)N(C)C)CC4)cc3c2C(C)C)cc2nccnc12 [Example 395, 2-(4-(3-isopropyl-2-(8-methylquinoxalin-6-yl)-1H-indol-5-yl)piperidin-1-yl)-N,N-dimethylacetamide]
10 | < 100 nM | < 100 nM | 1000 to 50000 nM | CNC(=O)CN1CCC(c2ccc3[nH]c(-c4cc(C(F)(F)F)c5nccn5c4)c(C(C)C)c3c2)CC1 [Example 373, 2-(4-(3-isopropyl-2-(8-(trifluoromethyl)imidazo[1,2-a]pyridin-6-yl)-1H-indol-5-yl)piperidin-1-yl)-N-methylacetamide]
11 | < 100 nM | < 100 nM | 100 to 1000 nM | CCc1c(-c2ccnc3[nH]ncc23)[nH]c2ccc(C3CCN(CCNC)CC3)cc12 [Example 654, 2-(4-(3-ethyl-2-(1H-pyrazolo[3,4-b]pyridin-4-yl)-1H-indol-5-yl)piperidin-1-yl)-N-methylethan-1-amine]
12 | < 100 nM | 100 to 1000 nM | 1000 to 50000 nM | CC(=O)N1CCC(C(=O)N2CCC(c3ccc4[nH]c(-c5ccnc6[nH]ncc56)c(C(C)C)c4c3)CC2)CC1 [Example 646, 1-(4-(4-(3-isopropyl-2-(1H-pyrazolo[3,4-b]pyridin-4-yl)-1H-indol-5-yl)piperidine-1-carbonyl)piperidin-1-yl)ethan-1-one]
13 | < 100 nM | < 100 nM | 1000 to 50000 nM | Cc1ccnc2c1c(-c1[nH]c3ccc(C4CCN(CC(=O)N(C)C)CC4)cc3c1C(C)C)cn2C [Example 285, 2-(4-(2-(1,4-dimethyl-1H-pyrrolo[2,3-b]pyridin-3-yl)-3-isopropyl-1H-indol-5-yl)piperidin-1-yl)-N,N-dimethylacetamide]
14 | < 100 nM | < 100 nM | 100 to 1000 nM | Cc1cc(-c2[nH]c3ccc(C4CCN(C(=O)CN(C)C)CC4)cc3c2C(C)C)cn2ccnc12 [Example 528, 2-(dimethylamino)-1-(4-(3-isopropyl-2-(8-methylimidazo[1,2-a]pyridin-6-yl)-1H-indol-5-yl)piperidin-1-yl)ethan-1-one]
